Numbers after ± are expanded uncertainties.
Assay: molar heat capacity at constant pressure; xn = mol fraction of the nth substance listed
Settings: 100 kPa, Small sample (50 mg) DSC

[Cl-].[K+] [potassium chloride] + [Cl-].[Na+]
Settings	molar heat capacity at constant pressure [J/K/mol]
600 K, Crystal of unknown type, x1 = 0.75	52.17 ± 3.2
600 K, Crystal of unknown type, x1 = 0.8	52.87 ± 3.3
635 K, Crystal of unknown type, x1 = 0.8	53.15 ± 12
635 K, Crystal, x1 = 0.8	52.52 ± 12
650 K, Crystal of unknown type, x1 = 0.1	54.41 ± 13
650 K, Crystal of unknown type, x1 = 0.2	56.61 ± 13
650 K, Crystal of unknown type, x1 = 0.3	54.74 ± 13
650 K, Crystal of unknown type, x1 = 0.4	55 ± 13
650 K, Crystal of unknown type, x1 = 0.5	55.48 ± 13
650 K, Crystal of unknown type, x1 = 0.6	54.91 ± 13
650 K, Crystal of unknown type, x1 = 0.7	56.01 ± 13
650 K, Crystal of unknown type, x1 = 0.75	52.52 ± 12
650 K, Crystal, x1 = 0.8	52.97 ± 12
683 K, Crystal of unknown type, x1 = 0.75	52.75 ± 12
683 K, Crystal, x1 = 0.75	55.25 ± 13
687 K, Crystal of unknown type, x1 = 0.7	56.56 ± 13
687 K, Crystal, x1 = 0.7	53.53 ± 12
700 K, Crystal of unknown type, x1 = 0.1	55.21 ± 13
700 K, Crystal of unknown type, x1 = 0.2	57.36 ± 13
700 K, Crystal of unknown type, x1 = 0.3	55.49 ± 13
700 K, Crystal of unknown type, x1 = 0.4	55.6 ± 13
700 K, Crystal of unknown type, x1 = 0.5	56.1 ± 13
700 K, Crystal of unknown type, x1 = 0.6	55.76 ± 13
700 K, Crystal, x1 = 0.7	54.17 ± 12
700 K, Crystal, x1 = 0.75	56.4 ± 13
700 K, Crystal, x1 = 0.8	54.47 ± 13
733 K, Crystal of unknown type, x1 = 0.6	56.32 ± 13
733 K, Crystal, x1 = 0.6	56.77 ± 13
739 K, Crystal of unknown type, x1 = 0.1	55.83 ± 13
739 K, Crystal, x1 = 0.1	55.59 ± 13
750 K, Crystal of unknown type, x1 = 0.2	58.11 ± 13
750 K, Crystal of unknown type, x1 = 0.3	56.24 ± 13
750 K, Crystal of unknown type, x1 = 0.4	56.2 ± 13
750 K, Crystal of unknown type, x1 = 0.5	56.71 ± 13
750 K, Crystal, x1 = 0.1	55.9 ± 13
750 K, Crystal, x1 = 0.6	57.39 ± 13
750 K, Crystal, x1 = 0.7	56.62 ± 13
750 K, Crystal, x1 = 0.75	59.8 ± 14
750 K, Crystal, x1 = 0.8	55.97 ± 13
753 K, Crystal of unknown type, x1 = 0.2	58.15 ± 13
753 K, Crystal, x1 = 0.2	59.47 ± 14
757 K, Crystal of unknown type, x1 = 0.5	56.8 ± 13
757 K, Crystal, x1 = 0.5	57.77 ± 13
769 K, Crystal of unknown type, x1 = 0.4	56.42 ± 13
769 K, Crystal, x1 = 0.4	56.84 ± 13
771 K, Crystal of unknown type, x1 = 0.3	56.56 ± 13
771 K, Crystal, x1 = 0.3	57.44 ± 13
800 K, Crystal, x1 = 0.1	57.3 ± 13
800 K, Crystal, x1 = 0.2	61.35 ± 14
800 K, Crystal, x1 = 0.3	58.49 ± 13
800 K, Crystal, x1 = 0.4	58.24 ± 13
800 K, Crystal, x1 = 0.5	59.38 ± 14
800 K, Crystal, x1 = 0.6	59.19 ± 14
800 K, Crystal, x1 = 0.7	59.07 ± 14
800 K, Crystal, x1 = 0.75	63.2 ± 15
800 K, Crystal, x1 = 0.8	57.47 ± 13
850 K, Crystal, x1 = 0.1	58.7 ± 14
850 K, Crystal, x1 = 0.2	63.35 ± 15
850 K, Crystal, x1 = 0.3	60.29 ± 14
850 K, Crystal, x1 = 0.4	60.49 ± 14
850 K, Crystal, x1 = 0.5	61.26 ± 14
850 K, Crystal, x1 = 0.6	60.99 ± 14
850 K, Crystal, x1 = 0.7	61.52 ± 14
850 K, Crystal, x1 = 0.75	66.6 ± 15
850 K, Crystal, x1 = 0.8	58.97 ± 14
900 K, Crystal, x1 = 0.1	60.1 ± 14
900 K, Crystal, x1 = 0.2	65.35 ± 15
900 K, Crystal, x1 = 0.3	62.09 ± 14
900 K, Crystal, x1 = 0.4	62.74 ± 14
900 K, Crystal, x1 = 0.5	63.13 ± 15
900 K, Crystal, x1 = 0.6	62.79 ± 14
900 K, Crystal, x1 = 0.7	63.97 ± 15
900 K, Crystal, x1 = 0.75	70 ± 16
900 K, Crystal, x1 = 0.8	60.47 ± 14
930 K, Crystal, x1 = 0.5	64.25 ± 15
930 K, Liquid, x1 = 0.5	81.03 ± 19
950 K, Liquid, x1 = 0.5	82.5 ± 19
1000 K, Liquid, x1 = 0.5	86.19 ± 20
1050 K, Liquid, x1 = 0.5	89.88 ± 21
1100 K, Liquid, x1 = 0.5	93.56 ± 22

— the NIST ThermoML archive (doi:10.1016/j.tca.2015.03.003)
